Test results published in US6518012B1, “Method for regulating the expression of MHC antigens and CD40 by inhibitors of histone deacetylation” (Health Research, Inc., priority 1999, dated 2003).

Columns and labels:
[1] = tested on: HLA-DRα mRNA; test: HLA-DRα mRNA by standard PCR and real-time PCR in human cell lines JAR and SK-N-MC; assay type: cell-based; settings: JAR
Protocol: (§1) To determine the effect of DAIs on HLA-DRα mRNA, cytoplasmic RNA was isolated from untreated and treated human trophoblast cell line JAR using standard techniques (RNeasy System from Qiagen). Standard PCR was performed using primers for DR and CIITA (Murphy et al., 1998, Reprod Dev., Chin et al., 1994, Immunity 1:687-697). Other primers used included human and mouse GAPDH (Clontech) and forward primer 5′-[…]-3′ (SEQ ID NO:25) and reverse primer 5′-[…]-3′ (SEQ ID NO:26) for mouse CIITA. PCR products were amplified with GOLD Taq for 10 min at 95° C., then 95° C. for 30 sec, 60° C. for 60 sec (25-45 cycles), then an extension at 60° C. for 10 min.
(§2) Oligonucleotide primers and TaqMan 5′-6-FAM and 3′-TAMRA-labeled probes were synthesized in the RPCI Biopolymer Facility. Primer and probe sequences are listed under Sequence Listing and also in FIG. 9. Sequences were designed using standard software (PrimerExpress software, PE Biosystems) except for human GAPDH.
(§3) Realtime PCR reactions contained TaqMan Universal PCR Master Mix (PE Biosystems), primers at 300 nM, and probes at optimal concentrations (150-225 nM depending on gene). Reactions were carried out on an ABI PRISM 7700 Sequence Detection System (PE Biosystems). Cycling conditions were 50° C. for 2 min, 95° C. for 10 min, then 60 cycles of 95° C. for 15 sec, 60° C. for 1 min. PCR samples were run in triplicate. The detection system and quantitative PCR was carried out as described by Williamson et al. (1995, Genet Res. 65:83-93). The threshold cycle number CT corresponded to the cycle number, at which the fluorescent emission reaches 10 standard deviations above the mean fluorescent emission, measured during the early ‘baseline’ cycles of the PCR. The CT values for triplicates were averaged and normalized to GAPDH levels. […] Assuming reverse transcription efficiencies were approximately the same for each sample, relative amounts of mRNA using the comparative CT method. Fold changes in mRNA levels were calculated as 2^x where x=the difference between normalized CT values of the control and experimental samples.
To evaluate the effects of DAIs on human cells, the human trophoblast cell line was treated with 100 nM Trichostatin A (TSA), IFNγ (100 U/ml) or a combination of TSA and IFNγ for 12 hours. RNA was isolated and real time quantitative RT-PCR was carried out. The fold increase in mRNA over the control was calculated.

[2] = tested on: cell lines employed; test: Toxicity of deacetylase inhibitors (lift-off, trypan-blue dye exclusion, laddering, PI/annexin-V flow cytometry); assay type: cell-based; settings: 1 mM Na-butyrate for 12-48 hr
Protocol: Two representative DAIs, TSA and NaBu were used for this illustration. […] In some experiments, 100 U/ml γ-IFN was added with and without the deacetylase inhibitor.

[3] = tested on: class II transactivator (CIITA) mRNA; test: CIITA mRNA by standard PCR and real-time PCR in human cell lines JAR and SK-N-MC; assay type: cell-based
Protocol: as §1, §2, §3
[…] RNA was isolated and real time quantitative RT-PCR was carried out. The fold increase in mRNA over the control was calculated.

[4] = tested on: HLA-DRα mRNA; test: HLA-DRα mRNA by standard PCR and real-time PCR in human cell lines JAR and SK-N-MC; assay type: cell-based
[5] = tested on: MHC class II protein on the cell surface; test: Cell surface MHC class II protein by flow cytometry on Colon 26 and J558; assay type: cell-based, mouse; settings: J558; G2/M arrest experiment with nocodazole; data not shown
Protocol: To determine the effect of TSA on cell surface protein expression, the J558 cell line was subjected to flow cytometric analyses as follows. Flow cytometric analyses were conducted by standard methods using cells fixed with 1.0% paraformaldehyde and analyzed on the FACScan (Becton Dickinson). Cell cycle analyses were carried out by flow cytometry with PI staining of genomic DNA. Cells were fixed and permeablized in methanol, treated with RNaseA and analyzed for DNA content by determination of FL3-area on the FACScan. The FL3-area data were analyzed with the ModFit software for determination of the percent cells in each phase of the cell cycle. In some cases, fluorescein isothiocyanate (FITC)-conjugated antibody staining was conducted prior to PI treatment and surface staining was analyzed as a function of cell cycle phase. Apoptosis was analyzed by staining with annexin-V directly conjugated with either FITC or RPE and by sub-G0 analysis of DNA staining. Expression levels without treatment are shown as shaded peaks, IFNγ treated cell expression is plotted by a thin line while the level of expression on TSA treated cells is represented by a heavy line. Isotype controls were analyzed and, in each case, fell on or below the levels shown for control cells. MC and Colon 26 treatments are shown for 50 nM TSA for 48 hours, while J558 treatment is for 25 nM TSA for 24 hours. All IFNγ treatments were 100 U/ml for the same length of time as the corresponding TSA treatment. The percent of cells staining positive for MHC class II or CD40 expression is indicated below each histogram. Since all cells were positive for MHC class I expression, the number under the histogram represents -fold change of expression calculated from the mean channel-shift after treatment relative to untreated cells. Data are representative of at least three independent experiments. Of the 13 markers analyzed on J558 cells, only class I, II and CD40 were enhanced, while levels of several non-expressed antigens were not elicited (including CD25, B7 integrin, CD40L, H2K^k and IA^k) while other markers, which were expressed, were not altered (including CD44, CD54, CD80, CD86 and CD119) by TSA treatment. […] The highest expression (21-fold induction) was achieved on J558 cells after 24 hr by 25 nM TSA. […] The separation of control and IFNγ curves in the CD40, J558 experiment depicted in FIG. 8 represents a mean channel fluorescence difference of only 1.3 and was not seen on independent replicates of the experiment.
TSA has been described as a cell cycle inhibitor that induces both G1 and especially G2/M blocks (Bestor, 1998, Nature, 393:311-312; Yoshida et al., 1988, Exp. Cell Res. 177:122-131). MHC class II, but not class I, has been reported (Inokoshi et al., 1999, Biochem. Biophys. Res. Commun., 256:372-376; Monroe et al., 1983, J. Immunol., 130:626-631) to be regulated differentially during the cell cycle. Therefore the cell cycle of the cell lines used in the present invention was analyzed by DNA staining and flow cytometry with each of the treatment conditions under study. […] Two additional methods were used to analyze cell cycle effects on MHC expression. Since it has been reported that TSA arrests cell cycle mainly in G2/M, and class II has been reported to accumulate in G2/M (Monroe et al., 1983, supra), experiments were designed to essentially arrest 100% of J558 cells in G2/M with nocodazole. […] From the above experiments, it can be concluded that DAIs have specific effects on MHC class I and II, and CD40 gene expression, which is likely not a result of its action on the cell cycle.

[6] = tested on: IAα mRNA; test: MHC class II (IAα) mRNA by RT-PCR and real-time PCR in mouse tumor models; assay type: cell-based
Protocol: as §1
(§4) In order to obtain more quantitative information on fold changes in DR and CIITA after treatment with the deacetylase inhibitors, a real time fluorescence technique capable of quantitating low copy numbers of transcripts was carried out as follows. Oligonucleotide primers and TaqMan 5′-6-FAM and 3′-TAMRA-labeled probes were synthesized in the RPCI Biopolymer Facility. Primer and probe sequences are listed under Sequence Listing and also in FIG. 9. Sequences were designed using standard software (PrimerExpress software, PE Biosystems) except for human GAPDH.
(§5) Realtime PCR reactions contained TaqMan Universal PCR Master Mix (PE Biosystems), primers at 300 nM, and probes at optimal concentrations (150-225 nM depending on gene). Reactions were carried out on an ABI PRISM 7700 Sequence Detection System (PE Biosystems). Cycling conditions were 50° C. for 2 min, 95° C. for 10 min, then 60 cycles of 95° C. for 15 sec, 60° C. for 1 min. PCR samples were run in triplicate. The detection system and quantitative PCR was carried out as described by Williamson et al. (1995, Genet Res. 65:83-93). The threshold cycle number CT corresponded to the cycle number, at which the fluorescent emission reaches 10 standard deviations above the mean fluorescent emission, measured during the early ‘baseline’ cycles of the PCR. The CT values for triplicates were averaged and normalized to GAPDH levels. […] In such cases, in order to calculate a minimum fold change for other samples in the same group, the CT value was arbitrarily set at 40. […] Assuming reverse transcription efficiencies were approximately the same for each sample, relative amounts of mRNA using the comparative CT method. Fold changes in mRNA levels were calculated as 2^x where x=the difference between normalized CT values of the control and experimental samples.
(§6) To determine if the effect of DAIs on MHC class II was manifested in other tumors and in different species, the effect of TSA was tested on four commonly used mouse tumor models: the SaI fibrosarcoma, the Colon 26 adenocarcinoma, the J558 plasmacytoma and the P815 mastocytoma. TSA induced class II in all four mouse tumors examined, while the effects of IFNγ were variable (FIG. 4). Data presented for each cell line represents optimal incubation time and concentration of TSA and is compared with 100 U/ml of IFNγ at the same time point. Numbers over bars represents fold changes. […] Colon 26 and J558 that differed strikingly in their reactivity to IFNγ were selected for further evaluation. RT-PCR and real time PCR was used to examine induction of CIITA and IAα by TSA and IFNγ. A20, a constitutively positive B cell line was used as a positive control. The results are shown in FIGS. 5A-D. The numbers over bars represent fold changes. […] Since the classical IFNγ inducible genes IRF-1 and GBP as well as MHC class I mRNA were not induced by IFNγ in J558 (data not shown), this cell line may have a signaling defect in the IFNγ pathway. Unexpectedly however, and unlike either the MC or Colon 26 cells, TSA induced both CIITA (102-fold) and Iα (537-fold) in J558 as shown in FIGS. 5B and 5D.

[7] = tested on: CIITA mRNA; test: CIITA mRNA by RT-PCR and real-time PCR in mouse tumor cells Colon 26 and J558; assay type: cell-based
Protocol: as §1, §4, §5, §6

## CCCC(=O)[O-].[Na+] [sodium butyrate]
[1]; real time quantitative RT-PCR, 100 nM TSA, IFNγ 100 U/ml or combination for 12 hours, sodium butyrate (FIG. 2)
  fold increase in HLA-DRα (MHC class II) mRNA over the control: 12 fold
[1]; standard PCR, 100 nM or 250 nM TSA or 1 mM sodium butyrate
  levels of mRNA for DR: substantial increase
[2]
  toxicity: non toxic
[3]; JAR, real time PCR, sodium butyrate (FIG. 2)
  increase in class II transactivator (CIITA): no increase
[3]; JAR, standard PCR at 35 cycles, 100 nM or 250 nM TSA or 1 mM sodium butyrate
  CIITA transcription: undetectable
[3]; MC cells, real time PCR up to 60 cycles, 100 nM TSA 24 hr, NaBu 1 mM 48 hr, IFNγ
  CIITA mRNA fold change: no activation
[3]; SK-N-MC, routine RT-PCR at 35 cycles, 100 nM TSA 24 hours, 1 mM NaBu 48 hours, IFNγ
  CIITA transcription: undetectable
[4]; MC cells, real time PCR, 100 nM TSA 24 hr, NaBu 1 mM 48 hr, IFNγ any concentration or time point
  fold increase in expression of DR: 88 fold
[4]; SK-N-MC, RT-PCR, 100 nM TSA 24 hours, 1 mM NaBu 48 hours, IFNγ
  levels of mRNA for HLA-DRα (DR): substantial increase

## COC(=O)Nc1nc2ccc(C(=O)c3cccs3)cc2[nH]1 [Nocodazole, nocodazole]
[5]
  MHC class II positive cells: 23%

B1: IFNγ: gamma-interferon, cytokine used as comparator at 100 U/ml (protein, UniProt P01579 24-161, looked up)
Interferon gamma: QDPYVKEAENLKKYFNAGHSDVADNGTLFLGILKNWKEESDRKIMQSQIVSFYFKLFKNFKDDQSIQKSVETIKEDMNVKFFNSNKKKRDDFEKLTNYSVTDLNVQRKAIHELIQVMAELSPAAKTGKRKRSQMLFRG
[6]
  Iα (class II) fold induction: did not activate
[7]
  CIITA fold induction: did not activate
